# Measured values reported in US20050096370A1, “Method for inhibiting tumor angiogenesis and tumor growth” (Bizbiotech Co., Ltd., priority 2003, published 2005).
# How the values were obtained:
# [1] = test system: Hep3B hepatoma tumors; assay: histology and immunohistochemistry (H&E, CD31, HIF-1α) of Hep3B xenograft tumors; assay type: in vivo, nude mice; details: 30 μg/g daily i.p. 2 weeks
# Procedure: FIG. 7 is a picture showing histopathology for Hep3B hepatoma tumors grown in nude mice. Male nude mice were injected subcutaneously in the flank with 5×10^6 viable Hep3B cells. […] After the last treatment, the mice were euthanized, the tumors removed, fixed with formalin, and embedded in paraffin. Tumor sections were cut from the paraffin blocks and stained with hernatoxylin and eosin. v, vessel; a, acinus. Scale bar=50 μm.
# FIG. 8 is a picture showing vascular distribution in Hep3B hepatoma tumors grown in nude mice. Male nude mice were injected subcutaneously in the flank with 5×10^6 viable Hep3B cells. […] After the last treatment, the mice were euthanized, the tumors removed, fixed with formalin, and embedded in paraffin. Tumor sections were cut from the paraffin blocks and processed for immunohistochemical staining to detect endothelial cells with an anti-CD31 antibody. The immunostained sections were developed using the avidinbiotin-horseradish peroxidase method with diaminobenzidine as the chromagen. The sections were lightly counterstained with hematoxylin. Arrows indicate CD31-positive vessels. Scale bar=50 μm.
# FIG. 9 is a picture showing expression and distribution of HIF-1α in Hep3B hepatoma tumors grown in nude mice. Male nude mice were injected subcutaneously in the flank with 5×10^6 viable Hep3B cells. […] After the last treatment, the mice were euthanized, the tumors removed, fixed with formalin, and embedded in paraffin. Tumor sections were cut from the paraffin blocks and processed for immunohistochemical staining to detect HIF-1α with an anti-HIF-1α antibody. The immunostained sections were developed using the avidin-biotin-horseradish peroxidase method with diaminobenzidine as the chromagen. The sections were lightly counterstained with hematoxylin. Arrows indicate HIF-1α positive cells. nu, nuclear staining; pn, perinuclear staining. Scale bar=50 μm. […]
# Because HIF-1 is important in angiogenesis, we next assessed HIF-1α expression in tumor sections from vehicle- and YC-1-treated mice (FIG. 9).
# [2] = test system: SiHa cervical carcinoma; assay: SiHa cervical carcinoma xenograft tumor growth in nude mice; assay type: in vivo; details: YC-1 30 μg/g daily i.p. 2 weeks, P<0.01
# Procedure: Male nude mice were injected subcutaneously in the flank with 5×10^6 viable Hep3B hepatoma (A), NCI-H87 gastric carcinoma (B), SiHa cervical carcinoma (C), SK-N-MC neuroblastoma (E), or Caki-I renal carcinoma (F) cells. […] Tumor size was measured over time. […] Differences between tumor sizes in the vehicle- and YC-1-treated groups for mice with Hep3B tumors were compared using ANOVA and Duncan's multiple range tests. * denotes P<0.001 relative to the control. Differences between tumor sizes in the vehicle and YC-1-treated groups for mice with other tumors (B-E) were compared using a Mann-Whitney U test. Each number beneath the error bar represents the P value of the difference relative to the control.
# Male nude (BALB/cAnNC˜-nu/nu) mice were purchased from Charles River Japan Inc. (Shin-Yokohama, JAPAN). The animals were housed in a specific pathogen-free room under controlled temperature and humidity. All animal procedures were performed according to the established procedures of the Seoul National University Laboratory Animal Maintenance Manual. Eighty mice aged 7-8 weeks were injected with tumor cells for the xenograft experiments. […]
# Tumors were measured every 2 or 3 days with calipers in two dimensions and the tumor volumes were calculated using the formula: Volume=axb2/2, where a is the width at the widest point of the tumor and h is the width perpendicular to a. […]
smiles,measurement,setting,value
"OCc1ccc(-c2nn(Cc3ccccc3)c3ccccc23)o1 [YC-1, 3-(5′-hydroxymethyl-2′-furyl)-1-benzylindazole]",CD31-immunopositive vessels in tumor sections,[1],Few CD31-immunopositive vessels
same,HIF-1α immunoreactive cells in tumor sections,[1],no HIF-1α inimunoreactive cells
same,hematoxylin-eosin histology of tumor sections,[1],frequent acinus formation without well-developed blood vessels
same,tumor size versus vehicle,[2],statistically significantly smaller
